Source: US11109593B2, “Isoxazolin-5-one derivative and herbicide containing same as active ingredient” (HOKKO CHEMICAL INDUSTRY CO., LTD., priority 2017, dated 2021)

Tests used:
Format in all cases: in vivo
[1] = tested on: Echinochloa crus-galli; test: Test Example 2: herbicidal effect test by treatment during growing period in paddy rice cultivation (seven days after seeding); conditions: 120 g/10a active ingredient, assessed 14 days after treatment, dry weight vs untreated area
In short: (§1)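 Emulsion formulations, diluted in water, applied dropwise to flooded pots (about 3 cm water) 7 days post-seeding at 120 g a.i./10 ares. Weeds sown 30 seeds each, 0–1 cm deep in puddled paddy soil; greenhouse. Readout: % reduction in plant dry weight vs untreated, day 14, duplicates.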

[2] = tested on: broad leaf weeds (Lindernia pyxidaria and Monochoria vaginalis); test: as above; conditions: 120 g/10a active ingredient, assessed 14 days after treatment, dry weight vs untreated area
In short: as §1

[3] = tested on: Scirpus juncoides; test: as above; conditions: 120 g/10a active ingredient, assessed 14 days after treatment, dry weight vs untreated area
In short: as §1

[4] = tested on: Echinochloa crus-galli; test: Test Example 1: herbicidal effect test by treatment of rice paddy soil (immediately after seeding); conditions: 120 g/10a active ingredient, dry weight vs untreated area, 14 days after treatment
In short: (§2)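 Puddled, fertilized (N:P:K=17:17:17) paddy soil in Wagner pots; seeds sown 0–1 cm deep, flooded to about 3 cm. Emulsifiable formulations diluted in water and dropped into the water immediately after seeding at 120 g active ingredient per 10 ares; greenhouse. Herbicidal rate from dry weight vs untreated at 14 days.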

[5] = tested on: broad leaf weeds (Lindernia pyxidaria and Monochoria vaginalis); test: as above; conditions: 120 g/10a active ingredient, dry weight vs untreated area, 14 days after treatment
In short: as §2

[6] = tested on: Scirpus juncoides; test: as above; conditions: 120 g/10a active ingredient, dry weight vs untreated area, 14 days after treatment
In short: as §2

For `Cc1c(Cc2ccccc2N(C(=O)OCC(C)C)S(=O)(=O)C(F)(F)F)c(=O)on1CC(C)C` [Compound 1-671], the “Herbicidal rate (%) Echinochloa crus-galli” value [1] was 90%, the “Herbicidal rate (%) Lindernia pyxidaria” value [2] was 60% and the “Herbicidal rate (%) Monochoria vaginalis” value [2] was 90%. The “Herbicidal rate (%) Scirpus juncoides” value [3] was 90%, the “Herbicidal rate (%) Echinochloa crus-galli” value [4] was 90% and the “Herbicidal rate (%) Lindernia pyxidaria” value [5] was 90%. For the same molecule, the “Herbicidal rate (%) Monochoria vaginalis” value [5] was 90% and the “Herbicidal rate (%) Scirpus juncoides” value [6] was 90%.
`Cc1c(Cc2ccccc2N(C(=O)OCC(C)C)S(=O)(=O)C(F)(F)F)c(=O)on1Cc1ccccc1` [Compound 1-677] was tested, and the “Herbicidal rate (%) Echinochloa crus-galli” value [1] was 70%, the “Herbicidal rate (%) Lindernia pyxidaria” value [2] was 80% and the “Herbicidal rate (%) Monochoria vaginalis” value [2] was 80%. The “Herbicidal rate (%) Scirpus juncoides” value [3] was 90%, the “Herbicidal rate (%) Echinochloa crus-galli” value [4] was 90% and the “Herbicidal rate (%) Lindernia pyxidaria” value [5] was 100%. The “Herbicidal rate (%) Monochoria vaginalis” value [5] was 100% and the “Herbicidal rate (%) Scirpus juncoides” value [6] was 90%.
For `CCN(CC)C(=O)n1oc(=O)c(Cc2ccccc2N(C(=O)OCC(C)C)S(=O)(=O)C(F)(F)F)c1C` [Compound 1-679], the “Herbicidal rate (%) Echinochloa crus-galli” value [1] was 50%, the “Herbicidal rate (%) Lindernia pyxidaria” value [2] was 40% and the “Herbicidal rate (%) Monochoria vaginalis” value [2] was 40%. The “Herbicidal rate (%) Scirpus juncoides” value [3] was 40%, the “Herbicidal rate (%) Echinochloa crus-galli” value [4] was 60% and the “Herbicidal rate (%) Lindernia pyxidaria” value [5] was 50%. The “Herbicidal rate (%) Monochoria vaginalis” value [5] was 50% and the “Herbicidal rate (%) Scirpus juncoides” value [6] was 50%.
With `CCCCCCCCn1oc(=O)c(Cc2ccccc2N(S(=O)(=O)C(F)(F)F)S(=O)(=O)C(F)(F)F)c1C` [Compound 1-981] the “Herbicidal rate (%) Echinochloa crus-galli” value [1] was 90%, the “Herbicidal rate (%) Lindernia pyxidaria” value [2] was 50% and the “Herbicidal rate (%) Monochoria vaginalis” value [2] was 40%. For the same molecule, the “Herbicidal rate (%) Scirpus juncoides” value [3] was 40%, the “Herbicidal rate (%) Echinochloa crus-galli” value [4] was 80% and the “Herbicidal rate (%) Lindernia pyxidaria” value [5] was 60%. The “Herbicidal rate (%) Monochoria vaginalis” value [5] was 50% and the “Herbicidal rate (%) Scirpus juncoides” value [6] was 70%.
`C#CCn1oc(=O)c(Cc2ccccc2N(S(=O)(=O)C(F)(F)F)S(=O)(=O)C(F)(F)F)c1C` [Compound 1-988] was tested, and the “Herbicidal rate (%) Echinochloa crus-galli” value [1] was 90%, the “Herbicidal rate (%) Lindernia pyxidaria” value [2] was 100% and the “Herbicidal rate (%) Monochoria vaginalis” value [2] was 100%. For the same molecule, the “Herbicidal rate (%) Scirpus juncoides” value [3] was 90%, the “Herbicidal rate (%) Echinochloa crus-galli” value [4] was 90% and the “Herbicidal rate (%) Lindernia pyxidaria” value [5] was 100%. For the same molecule, the “Herbicidal rate (%) Monochoria vaginalis” value [5] was 100% and the “Herbicidal rate (%) Scirpus juncoides” value [6] was 90%.
In the case of `Cc1c(Cc2ccccc2N(S(=O)(=O)C(F)(F)F)S(=O)(=O)C(F)(F)F)c(=O)on1CC1CC1` [Compound 1-991], the “Herbicidal rate (%) Echinochloa crus-galli” value [1] is reported as 90%, the “Herbicidal rate (%) Lindernia pyxidaria” value [2] is reported as 70% and the “Herbicidal rate (%) Monochoria vaginalis” value [2] is reported as 80%. For the same molecule, the “Herbicidal rate (%) Scirpus juncoides” value [3] was 90%, the “Herbicidal rate (%) Echinochloa crus-galli” value [4] was 90% and the “Herbicidal rate (%) Lindernia pyxidaria” value [5] was 100%. The “Herbicidal rate (%) Monochoria vaginalis” value [5] was 100% and the “Herbicidal rate (%) Scirpus juncoides” value [6] was 90%.
With `Cc1c(Cc2ccccc2N(S(=O)(=O)C(F)(F)F)S(=O)(=O)C(F)(F)F)c(=O)on1CC1CCCCC1` [Compound 1-994] the “Herbicidal rate (%) Echinochloa crus-galli” value [1] was 90%, the “Herbicidal rate (%) Lindernia pyxidaria” value [2] was 60% and the “Herbicidal rate (%) Monochoria vaginalis” value [2] was 80%. For the same molecule, the “Herbicidal rate (%) Scirpus juncoides” value [3] was 80%, the “Herbicidal rate (%) Echinochloa crus-galli” value [4] was 90% and the “Herbicidal rate (%) Lindernia pyxidaria” value [5] was 100%. For the same molecule, the “Herbicidal rate (%) Monochoria vaginalis” value [5] was 60% and the “Herbicidal rate (%) Scirpus juncoides” value [6] was 90%.
`COCCn1oc(=O)c(Cc2ccccc2N(S(=O)(=O)C(F)(F)F)S(=O)(=O)C(F)(F)F)c1C` [Compound 1-996] was tested, and the “Herbicidal rate (%) Echinochloa crus-galli” value [1] was 70%, the “Herbicidal rate (%) Lindernia pyxidaria” value [2] was 70% and the “Herbicidal rate (%) Monochoria vaginalis” value [2] was 80%. For the same molecule, the “Herbicidal rate (%) Scirpus juncoides” value [3] was 90%, the “Herbicidal rate (%) Echinochloa crus-galli” value [4] was 90% and the “Herbicidal rate (%) Lindernia pyxidaria” value [5] was 80%. The “Herbicidal rate (%) Monochoria vaginalis” value [5] was 80% and the “Herbicidal rate (%) Scirpus juncoides” value [6] was 90%.
In the case of `Cc1c(Cc2ccccc2N(S(=O)(=O)C(F)(F)F)S(=O)(=O)C(F)(F)F)c(=O)on1Cc1ccccc1F` [Compound 1-1012], the “Herbicidal rate (%) Echinochloa crus-galli” value [1] is reported as 60%, the “Herbicidal rate (%) Lindernia pyxidaria” value [2] is reported as 80% and the “Herbicidal rate (%) Monochoria vaginalis” value [2] is reported as 80%. The “Herbicidal rate (%) Scirpus juncoides” value [3] was 90%, the “Herbicidal rate (%) Echinochloa crus-galli” value [4] was 90% and the “Herbicidal rate (%) Lindernia pyxidaria” value [5] was 100%. For the same molecule, the “Herbicidal rate (%) Monochoria vaginalis” value [5] was 100% and the “Herbicidal rate (%) Scirpus juncoides” value [6] was 100%.
For `Cc1c(Cc2ccccc2N(S(=O)(=O)C(F)(F)F)S(=O)(=O)C(F)(F)F)c(=O)on1Cc1ccc(Cl)cc1` [Compound 1-1015], the “Herbicidal rate (%) Echinochloa crus-galli” value [1] was 70%, the “Herbicidal rate (%) Lindernia pyxidaria” value [2] was 90% and the “Herbicidal rate (%) Monochoria vaginalis” value [2] was 90%. The “Herbicidal rate (%) Scirpus juncoides” value [3] was 90%, the “Herbicidal rate (%) Echinochloa crus-galli” value [4] was 90% and the “Herbicidal rate (%) Lindernia pyxidaria” value [5] was 100%. For the same molecule, the “Herbicidal rate (%) Monochoria vaginalis” value [5] was 90% and the “Herbicidal rate (%) Scirpus juncoides” value [6] was 90%.
`Cc1c(Cc2ccccc2N(S(=O)(=O)C(F)(F)F)S(=O)(=O)C(F)(F)F)c(=O)on1Cc1ccc(Br)cc1` [Compound 1-1016] was tested, and the “Herbicidal rate (%) Echinochloa crus-galli” value [1] was 40%, the “Herbicidal rate (%) Lindernia pyxidaria” value [2] was 70% and the “Herbicidal rate (%) Monochoria vaginalis” value [2] was 80%. For the same molecule, the “Herbicidal rate (%) Scirpus juncoides” value [3] was 60%, the “Herbicidal rate (%) Echinochloa crus-galli” value [4] was 90% and the “Herbicidal rate (%) Lindernia pyxidaria” value [5] was 90%. For the same molecule, the “Herbicidal rate (%) Monochoria vaginalis” value [5] was 60% and the “Herbicidal rate (%) Scirpus juncoides” value [6] was 80%.
In the case of `Cc1c(Cc2ccccc2N(S(=O)(=O)C(F)(F)F)S(=O)(=O)C(F)(F)F)c(=O)on1Cc1ccc(C#N)cc1` [Compound 1-1017], the “Herbicidal rate (%) Echinochloa crus-galli” value [1] is reported as 0%, the “Herbicidal rate (%) Lindernia pyxidaria” value [2] is reported as 80% and the “Herbicidal rate (%) Monochoria vaginalis” value [2] is reported as 80%. For the same molecule, the “Herbicidal rate (%) Scirpus juncoides” value [3] was 80%, the “Herbicidal rate (%) Echinochloa crus-galli” value [4] was 40% and the “Herbicidal rate (%) Lindernia pyxidaria” value [5] was 60%. For the same molecule, the “Herbicidal rate (%) Monochoria vaginalis” value [5] was 90% and the “Herbicidal rate (%) Scirpus juncoides” value [6] was 90%.
With `Cc1ccc(Cn2oc(=O)c(Cc3ccccc3N(S(=O)(=O)C(F)(F)F)S(=O)(=O)C(F)(F)F)c2C)cc1` [Compound 1-1018] the “Herbicidal rate (%) Echinochloa crus-galli” value [1] was 40%, the “Herbicidal rate (%) Lindernia pyxidaria” value [2] was 80% and the “Herbicidal rate (%) Monochoria vaginalis” value [2] was 80%. The “Herbicidal rate (%) Scirpus juncoides” value [3] was 80%, the “Herbicidal rate (%) Echinochloa crus-galli” value [4] was 90% and the “Herbicidal rate (%) Lindernia pyxidaria” value [5] was 100%. The “Herbicidal rate (%) Monochoria vaginalis” value [5] was 90% and the “Herbicidal rate (%) Scirpus juncoides” value [6] was 90%.
With `Cc1c(Cc2ccccc2N(S(=O)(=O)C(F)(F)F)S(=O)(=O)C(F)(F)F)c(=O)on1Cc1ccc(C(C)(C)C)cc1` [Compound 1-1019] the “Herbicidal rate (%) Echinochloa crus-galli” value [1] was 0%, the “Herbicidal rate (%) Lindernia pyxidaria” value [2] was 40% and the “Herbicidal rate (%) Monochoria vaginalis” value [2] was 40%. The “Herbicidal rate (%) Scirpus juncoides” value [3] was 0%, the “Herbicidal rate (%) Echinochloa crus-galli” value [4] was 40% and the “Herbicidal rate (%) Lindernia pyxidaria” value [5] was 60%. For the same molecule, the “Herbicidal rate (%) Monochoria vaginalis” value [5] was 60% and the “Herbicidal rate (%) Scirpus juncoides” value [6] was 40%.
In the case of `Cc1c(Cc2ccccc2N(S(=O)(=O)C(F)(F)F)S(=O)(=O)C(F)(F)F)c(=O)on1Cc1cccc(C(F)(F)F)c1` [Compound 1-1020], the “Herbicidal rate (%) Echinochloa crus-galli” value [1] is reported as 60%, the “Herbicidal rate (%) Lindernia pyxidaria” value [2] is reported as 40% and the “Herbicidal rate (%) Monochoria vaginalis” value [2] is reported as 40%. For the same molecule, the “Herbicidal rate (%) Scirpus juncoides” value [3] was 40%, the “Herbicidal rate (%) Echinochloa crus-galli” value [4] was 50% and the “Herbicidal rate (%) Lindernia pyxidaria” value [5] was 80%. The “Herbicidal rate (%) Monochoria vaginalis” value [5] was 40% and the “Herbicidal rate (%) Scirpus juncoides” value [6] was 40%.
`COc1ccc(Cn2oc(=O)c(Cc3ccccc3N(S(=O)(=O)C(F)(F)F)S(=O)(=O)C(F)(F)F)c2C)cc1` [Compound 1-1022] was tested, and the “Herbicidal rate (%) Echinochloa crus-galli” value [1] was 70%, the “Herbicidal rate (%) Lindernia pyxidaria” value [2] was 100% and the “Herbicidal rate (%) Monochoria vaginalis” value [2] was 100%. For the same molecule, the “Herbicidal rate (%) Scirpus juncoides” value [3] was 90%, the “Herbicidal rate (%) Echinochloa crus-galli” value [4] was 90% and the “Herbicidal rate (%) Lindernia pyxidaria” value [5] was 100%. The “Herbicidal rate (%) Monochoria vaginalis” value [5] was 100% and the “Herbicidal rate (%) Scirpus juncoides” value [6] was 90%.
